From US11505560B2, “Heterobifunctional compounds with improved specificity” (DANA-FARBER CANCER INSTITUTE, INC., priority 2017, dated 2022) come the findings set out here.

Assay [1] deals with BRD2BD1, BRD2BD2, BRD3BD1, BRD3BD2, BRD4BD1, BRD4BD2 GFP constructs. In words: Cellular imaging-based degradation assay (bromodomain-GFP with mCherry reporter). The assay is classed as cell-based, human. The procedure: Cells stably expressing bromodomain-GFP with mCherry reporter were seeded at 30-50% confluency in 384 well plates (3764, Corning) with 50 μL FluoroBrite DMEM media (Gibco, A18967) containing 10% FBS per well a day before compound treatment. Compounds (see Figure legends) were dispensed using D300e Digital Dispenser (HP) normalized to 0.5% DMSO and incubated with cells for 5 h. The assay plate was imaged immediately using Acumen eX3/HCl (TTPLabtech) High Content Imager with 488 nm and 561 nm lasers in 2 μm×1 μm grid per well format. The resulting images were analyzed using CellProfiler™ (Carpenter, et al., GenomeBiology 7:r100 (2006)). A series of image analysis steps (‘image analysis pipeline’) was constructed.
The CellProfiler™ pipeline steps are briefly outlined here. First, the red and green channels were aligned and cropped to target the middle of each well (to avoid analysis of heavily clumped cells at the edges), and a background illumination function was calculated for both red and green channels of each well individually and subtracted to correct for illumination variations across the 384-well plate from various sources of error. An additional step was then applied to the green channel to suppress the analysis of large auto fluorescent artifacts and enhance the analysis of cell specific fluorescence by way of selecting for objects under a given size, 30 A.U., and with a given shape, speckles. mCherry-positive cells were then identified in the red channel filtering for objects between 8-60 pixels in diameter and using intensity to distinguish between clumped objects. The green channel was then segmented into GFP positive and negative areas and objects were labeled as GFP positive if at least 40% of it overlapped with a GFP positive area. The fraction of GFP-positive cells/mCherry-positive cells (GFP/mCherry ratio) in each well was then calculated, and the green and red images were rescaled for visualization. The GFP/mCherry ratio was normalized to DMSO and analyzed in GraphPad Prism 7.

The test system of assay [2] is BRD2BD1, BRD2BD2, BRD3BD1, BRD3BD2, BRD4BD1, BRD4BD2 EGFP constructs. Nature of the assay: EGFP/mCherry reporter assay on individual BET bromodomains (flow cytometry). Type of assay: cell-based, human. As to conditions: BRD2/3/4 BD1 and BD2. The procedure:
(§1) IKZF1A, BRD2BD1, BRD2BD2, BRD3BD1, BRD3BD2, BRD4BD1, and BRD4BD2 were subcloned into mammalian pcDNA5/FRT Vector (Ampicillin and Hygromycin B resistant) modified to contain MCS-eGFP-P2A-mCherry. […] Following 2-3 passage cycle FACS (FACSAria II, BD) was used to enrich for cells expressing eGFP and mCherry.
(§2) Signal from 5000 cells per well was acquired in singlicate or duplicate and the eGFP and mCherry florescence monitored. Data was analyzed using FlowJo (FlowJo, LCC). […] The eGFP protein abundance relative to mCherry was then quantified as a ten-fold amplified ratio for each individual cell using the formula: 10×eGFP/mCherry. The median of the ratio was then calculated per set, normalized to the median of the DMSO ratio, and is denoted as relative abundance. Standard deviation is calculated from four replicates (n=4) unless described otherwise.
A general note: Reporter assays use an easily measured gene product as a stand-in for the process of interest.

Assay [3] deals with T1, BRD4BD1-EGFP (Homo sapiens, UniProt O60885+Q96SW2).
T1 construct: expressed in transfected cells
In words: BRD4BD1-EGFP/mCherry reporter cellular degradation assay (flow cytometry). The assay is classed as cell-based. As to conditions: 5 h treatment. The procedure:
Reporter cells that stably express BRD4BD1-EGFP followed by a P2A splice site separated mCherry, were treated with increasing concentrations of dBET molecules (FIG. 3A-FIG. 3F). […] IKZF1A, BRD2BD1, BRD2BD2, BRD3BD1, BRD3BD2, BRD4BD1, and BRD4BD2 were subcloned into mammalian pcDNA5/FRT Vector (Ampicillin and Hygromycin B resistant) modified to contain MCS-eGFP-P2A-mCherry. […] Following 2-3 passage cycle FACS (FACSAria II, BD) was used to enrich for cells expressing eGFP and mCherry.
as §2
(In general: In flow cytometry, cells or beads pass a laser one at a time.)

The target in assay [4] is T2, IKZF1Δ-CRBN complex formation (Homo sapiens, UniProt Q13422+Q96SW2, DEL197-239).
T2 construct: made in house; host or cells: Trichoplusia ni High-Five insect cells (baculovirus)
In words: CRBN-IKZF1Δ binding assay (TR-FRET). Conditions: IKZF1Δ and DDB1ΔB-CRBN. The method, then:
Compounds in CRBN mutants dimerization assay were dispensed as described above into 200 nM His6-DDB1-His6-CRBNmutants or 200 nM His6-DDB1ΔB-His6-CRBNWT, 100 nM BRD4BD1-BODIPY-SpyCatcher and 2 nM terbium-anti-HIS Ab (Invitrogen) in a buffer containing 50 mM Tris pH 7.5, 100 mM NaCl, 0.1% Pluronic F-68 solution (Sigma) and 2% DMSO (4% DMSO final). Before TR-FRET measurements were conducted, the reactions were incubated for 15 min at RT. […] The TR-FRET signal of each data point was extracted by calculating the 520/490 nm ratio. […] The peak height of TR-FRET dBET dose response data was calculated in GraphPad Prism 7 using Area Under Curve analysis for three independent replicates (n=3) and the mean peak height and standard deviation calculated.
The standard deviation in IKZF1A TR-FRET compound titrations was calculated from three biological replicates (n=3) as an average of 5 technical replicates per well per experiment, or as an average of 5 technical replicates of single experiment for unlabelled protein titrations.
A general note: In TR-FRET formats the signal depends on donor and acceptor labels being close together.

Assay [5] concerns the target T3, IKZF1Δ-EGFP fusion protein (Homo sapiens, UniProt Q13422+Q96SW2, DEL197-239).
T3 construct: expressed in transfected cells; HEK293T cells
Nature of the assay: IKZF1Δ-EGFP fusion protein degradation reporter assay (flow cytometry). As to conditions: HEK293T cells. The assay is classed as cell-based. The procedure: as §1, §2

The mark [6] stands for this setting: 5 h incubation, cellular imaging.

“Also recorded” adds a separate entry of the source.

T2 sequence (Q96SW2 whole entry, stated change not applied): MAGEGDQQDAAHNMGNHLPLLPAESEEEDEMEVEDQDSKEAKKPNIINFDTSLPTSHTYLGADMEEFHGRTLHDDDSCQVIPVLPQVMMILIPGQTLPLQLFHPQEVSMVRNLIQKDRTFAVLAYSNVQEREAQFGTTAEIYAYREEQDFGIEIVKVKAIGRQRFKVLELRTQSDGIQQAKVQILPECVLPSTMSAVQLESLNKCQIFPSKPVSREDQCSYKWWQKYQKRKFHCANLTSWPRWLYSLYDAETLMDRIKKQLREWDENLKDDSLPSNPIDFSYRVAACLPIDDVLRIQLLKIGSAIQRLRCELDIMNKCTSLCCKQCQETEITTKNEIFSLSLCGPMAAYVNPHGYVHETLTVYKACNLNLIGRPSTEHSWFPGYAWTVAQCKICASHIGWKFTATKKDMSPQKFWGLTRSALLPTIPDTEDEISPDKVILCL
T2 sequence (Q13422 with tags, fused parts or gaps DEL197-239 limits assumed): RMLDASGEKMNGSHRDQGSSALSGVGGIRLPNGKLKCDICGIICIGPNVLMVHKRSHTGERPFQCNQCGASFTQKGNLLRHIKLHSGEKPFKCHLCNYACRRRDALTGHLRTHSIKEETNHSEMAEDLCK

As for `COC(=O)C[C@@H]1N=C(c2ccc(Cl)cc2)c2c(sc(C(=O)NCCNc3ccc4c(c3)C(=O)N(C3CCC(=O)NC3=O)C4=O)c2C)-n2c(C)nnc21` (stereo partly shown) [ZXH-3-28], the “bromodomain degradation activity and selectivity (in words)” value in assay [1] (setting [6]) was “inactive molecule”. Turning to `Cc1ncsc1-c1ccc(CNC(=O)[C@@H]2C[C@@H](O)CN2C(=O)[C@@H](NC(=O)COCCOCCOCCNC(=O)C[C@@H]2N=C(c3ccc(Cl)cc3)c3c(sc(C)c3C)-n3c(C)nnc32)C(C)(C)C)cc1` [MZ1, reference compound], in assay [2], the “selectivity of degradation across BET bromodomains (in words)” value is “activity on most bromodomains”. Still for that read-out and setting: with `COC(=O)C[C@@H]1N=C(c2ccc(Cl)cc2)c2c(sc(C(=O)NCCNc3cccc4c3C(=O)N(C3CCC(=O)NC3=O)C4=O)c2C)-n2c(C)nnc21` (stereo partly shown) [ZXH-3-27] the entry was “lack of selective degradation of BRD4”. `COC(=O)C[C@@H]1N=C(c2ccc(Cl)cc2)c2c(sc(C(=O)NCCCNc3cccc4c3C(=O)N(C3CCC(=O)NC3=O)C4=O)c2C)-n2c(C)nnc21` (stereo partly shown) [ZXH-2-147]: the “degradation of BRD4BD1 (in words)” value in assay [3] was “active on BRD4BD1”. Moreover, the “selectivity of degradation across BET bromodomains (in words)” value in assay [2] is “selectively targets BRD4 for degradation and spares BRD2 and BRD3; also recorded: selective degradation of BRD4”. As to `COC(=O)C[C@@H]1N=C(c2ccc(Cl)cc2)c2c(sc(C(=O)NCCCCCNc3ccc(F)c4c3C(=O)N(C3CCC(=O)NC3=O)C4=O)c2C)-n2c(C)nnc21` (stereo partly drawn) [BJG-02-119, Methyl 2-((6S)-4-(4-chlorophenyl)-2-((5-((2-(2,6-dioxopiperidin-3-yl)-7-fluoro-1,3-dioxoisoindolin-4-yl)amino)pentyl)carbamoyl)-3,9-dimethyl-6H-thieno[3,2f][1,2,4]triazolo[4,3-a][1,4]diazepin-6-yl)acetate], the “bromodomain degradation activity and selectivity (in words)” value in assay [1] (setting [6]) is “maintaining selectivity, with reduced activity as compared to ZXH-3-26”. Consider `Cc1sc2c(c1C)C(c1ccc(Cl)cc1)=N[C@@H](CC(=O)NCCOc1cccc3c1C(=O)N(C1CCC(=O)NC1=O)C3=O)c1nnc(C)n1-2` (stereo partly shown) [ZXH-2-42], for which, in assay [1] (setting [6]), the “bromodomain degradation activity and selectivity (in words)” value was “significantly reduced activity”. Moreover, in assay [4], the “induction of IKZF1-CRBN complex formation / IKZF1 binding (in words)” value is on record as “greatly reduced compared to their nitrogen analogs”. Turning to `COC(=O)C[C@@H]1N=C(c2ccc(Cl)cc2)c2c(sc(C(=O)NCCCCNc3cccc4c3C(=O)N(C3CCC(=O)NC3=O)C4=O)c2C)-n2c(C)nnc21` (stereo partly shown) [ZXH-2-184], the “selectivity of degradation across BET bromodomains (in words)” value in assay [2] was “selectively targets BRD4 for degradation and spares BRD2 and BRD3; also recorded: selective degradation of BRD4”. Consider `COC(=O)C[C@@H]1N=C(c2ccc(Cl)cc2)c2c(sc(C(=O)NCCCCCCCCOc3ccc4c(c3)C(=O)N(C3CCC(=O)NC3=O)C4=O)c2C)-n2c(C)nnc21` (stereo partly shown) [ZXH-2-45], for which, in assay [5], the “cellular IKZF1 degradation (in words)” value is “reduced IKZF1 binding and IKZF1 degradation”. Moreover, the “bromodomain degradation activity and selectivity (in words)” value in assay [1] (setting [6]) is on record as “potent degradation of bromodomains”. Also, in assay [4], the “induction of IKZF1-CRBN complex formation / IKZF1 binding (in words)” value is “greatly reduced compared to their nitrogen analogs; also recorded: reduced IKZF1 binding”. With `COC(=O)C[C@@H]1N=C(c2ccc(Cl)cc2)c2c(sc(C(=O)NCCCCCCc3cccc4c3C(=O)N(C3CCC(=O)NC3=O)C4=O)c2C)-n2c(C)nnc21` (stereo partly shown) [ZXH-3-82], the “selectivity of degradation across BET bromodomains (in words)” value in assay [2] is “selectively targets BRD4 for degradation and spares BRD2 and BRD3”.

`COC(=O)C[C@@H]1N=C(c2ccc(Cl)cc2)c2c(sc(C(=O)NCCCCCCCCOc3cccc4c3C(=O)N(C3CCC(=O)NC3=O)C4=O)c2C)-n2c(C)nnc21` (stereo partly shown) [ZXH-2-43]: the “cellular IKZF1 degradation (in words)” value in assay [5] is “reduced IKZF1 binding and IKZF1 degradation”. Also, in assay [1] (2.6 nM concentration, 5 h), the “degradation of BRD2/3/4 at low concentration (in words)” value is reported as “significant degradation of BRD2/3/4”. Also, the “bromodomain degradation activity and selectivity (in words)” value in assay [1] (setting [6]) was “potent degradation of bromodomains”. The “induction of IKZF1-CRBN complex formation / IKZF1 binding (in words)” value in assay [4] is reported as “greatly reduced compared to their nitrogen analogs; also recorded: reduced IKZF1 binding”.

In the case of `COC(=O)C[C@@H]1N=C(c2ccc(Cl)cc2)c2c(sc(C(=O)NCCCCCCCCNc3ccc4c(c3)C(=O)N(C3CCC(=O)NC3=O)C4=O)c2C)-n2c(C)nnc21` (stereo partly shown) [dBET72, reference compound], the “cellular IKZF1 degradation (in words)” value in assay [5] was “equipotent to lenalidomide”. Also, the “induction of IKZF1-CRBN complex formation / IKZF1 binding (in words)” value in assay [4] is given as “pronounced complex formation”. For the molecule `COC(=O)C[C@@H]1N=C(c2ccc(Cl)cc2)c2c(sc(C(=O)NCCCCCNc3cc(F)cc4c3CN(C3CCC(=O)NC3=O)C4=O)c2C)-n2c(C)nnc21` (stereo partly drawn) [BJG-01-174, Methyl 2-((6S)-4-(4-chlorophenyl)-2-((5-((2-(2,6-dioxopiperidin-3-yl)-6-fluoro-1-oxoisoindolin-4-yl)amino)pentyl)carbamoyl)-3,9-dimethyl-6H-thieno[3,2-f][1,2,4]triazolo[4,3-a][1,4]diazepin-6-yl)acetate], in assay [1] (setting [6]), the “bromodomain degradation activity and selectivity (in words)” value was “inactive degrader”. Same read-out and setting: in the case of `COC(=O)C[C@@H]1N=C(c2ccc(Cl)cc2)c2c(sc(C(=O)NCCCCCOc3cccc4c3C(=O)N(C3CCC(=O)NC3=O)C4=O)c2C)-n2c(C)nnc21` (stereo partly drawn) [BJG-02-030, Methyl 2-((6S)-4-(4-chlorophenyl)-2-((5-((2-(2,6-dioxopiperidin-3-yl)-1,3-dioxoisoindolin-4-yl)oxy)pentyl)carbamoyl)-3,9-dimethyl-6H-thieno[3,2-f][1,2,4]triazolo[4,3-a][1,4]diazepin-6-yl)acetate] it was “maintained BRD4BD1 degradation selectivity, with reduced activity”. For the molecule `COC(=O)C[C@@H]1N=C(c2ccc(Cl)cc2)c2c(sc(C(=O)NCCCc3cccc4c3C(=O)N(C3CCC(=O)NC3=O)C4=O)c2C)-n2c(C)nnc21` (stereo partly shown) [ZXH-3-52], the “BRD3/BRD4 selective degradation observed” value in assay [1] (setting [6]) is listed as “BRD3/BRD4 selective degraders”.
